The results in this text go back to PMC11983575, “Study on the synthesis and biological activity of kojic acid triazol thiosemicarbazide Schiff base derivatives” (Journal of Enzyme Inhibition and Medicinal Chemistry, 2025).

Assay [1] in a line: DPPH free radical scavenging activity assay. The note with it: DPPH 150 μM, 30 min, 517 nm; read-out: DPPH/IC50 (μM) ± SD. The procedure:
The anti-oxidation effect on DPPH radical was determined by a slightly modified version of a previously described DPPH radical scavenging assay. Reaction mixtures consisted of 100 μl of DPPH (150 μM), 20 μl of increasing concentration of test compounds and the volume was adjusted to 200 μl in each well with DMSO. The assay solution was then incubated at room temperature (25 °C) for 30 min in the dark. After the incubation, absorbance at 517 nm was measured by using UV-2600 spectrophotometer. The experiments were undertaken in triplicate. DMSO was used as a control. Ascorbic acid was used as antioxidant standard for comparison of the activity. The calculation of DPPH radical scavenging activity was followed by this formula: DPPH radical scavenging activity %=absorbance of standard−absorbance of sample/Absorbance of standard×100
For orientation: DPPH is a stable violet radical that fades when it is reduced.

Assay [2] can be described thus: ABTS radical cation scavenging activity assay. The following applies: 734 nm; read-out: ABTS+/IC50 (μM) ± SD. On the procedure: ABTS free radical scavenging activity was performed according to the procedure described by Zhang et al.[40] Test solution of ABTS decolourisation assay was prepared by mixing 2.45 mM potassium persulfate and 7 mM ABTS at 8:12 volume/volume ratio. The working solution was kept in the dark at room temperature for 12–18 h. Before ABTS radical scavenging test, the ABTS test solution was diluted with DMSO to absorbance of 0.7 (±0.02) at 734 nm. One millilitre of diluted ABTS test solution was added to 10 μl of DMSO or test sample. After initial mixing, the working solution was kept in the dark at room temperature for 2–6 min, and the absorbance was measured at 734 nm. This test was carried out in triplicate. DMSO was used as a control. Ascorbic acid was used as antioxidant standard for comparison of the activity. The absorbance of test samples was calculated by the following formula. ABTS scavenging ability %=absorbance of standard−absorbance of sample/absorbance of standard×100.

Assay [3] deals with fresh-cut apples. The assay can be described thus: Effects on the browning process of fresh-cut apples. The arrangement: species or system Fuji apples. The note with it: 6w 25, 50, 100 μM; storage at 5 °C for five days; kojic acid and vitamin C 50 μM as positive controls. The procedure: Fuji apples were planted in Yantai, China, and were bought from Walmart supermarket in Shaoyang, China. The apples were come from the same batch having similar shapes, maturity, and without injuries, rot, diseases, or pests. Apples were cut into thin pieces with same size by using a sharp knife. Then, the fresh-cut slices were divided randomly into different groups: blank control group was immersed in ethanol for 10 min at room temperature, treatment groups were dipped in the solution of compound 6w under the same conditions, positive groups were dipped in 50 μM kojic acid and 50 μM vitamin C under the same conditions. The test samples were air-dried naturally and immediately were separately packaged with polyethylene clam-packs, and stored at 2–8 °C, and used for the following experimental measurements.
According to the reported protocol, the colour of apple samples was tested by a CR-400 Minolta […] instrument (Konica Minolta, Osaka, Japan). Three data of L*, a*, and b* were recorded for each sample. The L* values indicate lightness, the a* values show reddish-greenish, the b* values represent yellowish-bluish. The colour measurement was carried out in triplicate by random sampling.
Therefore, we further evaluated its anti-browning effect on apple, in which kojic acid and vitamin C were used as positive control. […]

“Also recorded” adds a separate entry of the source.

Regarding “2-(1-(4-((1-((5-Hydroxy-4-oxo-4H-pyran-2-yl)methyl)-1H-1,2,3-triazol-5-yl)methoxy)phenyl)ethylidene)hydrazinecarbothioamide [Compound 6w]”, the IC50 in assay [1] is 14.44 ± 0.077 µM; in assay [2], 3.03 ± 0.009 µM. The “anti-browning effect on fresh-cut apple (L* values, colour)” value in assay [3] is “potent anti-browning agent; also recorded: better than that of kojic acid and ascorbic acid; also recorded: some anti-browning effect”.
